Measured values reported in patent EP4603105A1, “PHARMACEUTICAL COMPOSITION CONTAINING CYCLIC COMPOUND HAVING SELECTIVE KRAS INHIBITORY EFFECT AGAINST HRAS AND NRAS” (CHUGAI SEIYAKU KABUSHIKI KAISHA, priority 2022, dated 2024).
*1 amine or outer side, *2 acyl side, *3 side chain or, on linkers, in order; H or OH if unused. Where a SMILES comes first, the peptide text is derived from it. Bridges are numbered along the chain shown (N, C = ends). [ ]: non-standard residue; d: D form. The star is where a group is joined. hPhe(3-Cl-4-CF3) = N[C@@H](CCc1ccc(C(F)(F)F)c(Cl)c1)C(=O)O; X37 = Cc1ccc(C[C@@H](C(=O)[*:2])N(CCC(C)C)[*:1])cc1; NMeGly(cPent) = CN[C@H](C(=O)O)C1CCCC1; NEtPhe = CCN[C@@H](Cc1ccccc1)C(=O)O; NMeD = CN[C@@H](CC(=O)O)C(=O)O; NMeL = CN[C@@H](CC(C)C)C(=O)O; Morpholide = C1CN(*)CCO1; NMeA = CN[C@@H](C)C(=O)O; Ac5c = NC1(C(=O)O)CCCC1; Aze = O=C(O)[C@@H]1CCN1; Sar = CNCC(=O)O

How the values were obtained:
HRAS wild-type protein = HRAS wild-type protein (Homo sapiens, UniProt P01112); assay: Binding to HRAS by surface plasmon resonance (SPR), KD and KD ratio to KRAS
HRAS wild-type protein, sequence (P01112 whole entry): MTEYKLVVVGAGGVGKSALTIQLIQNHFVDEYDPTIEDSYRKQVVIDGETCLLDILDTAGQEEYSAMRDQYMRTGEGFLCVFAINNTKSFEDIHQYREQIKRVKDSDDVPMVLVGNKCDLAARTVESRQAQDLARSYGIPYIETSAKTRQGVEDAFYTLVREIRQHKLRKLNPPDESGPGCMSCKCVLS
Method in brief: (§1)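 Captured GDP-RAS (~100–300 RU) was exposed to increasing compound concentrations, 75 s per step, in running buffer with 10 µM GDP, 10 mM MgCl2 and 4% DMSO at pH 7.4.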

[1] = test system: human lung cancer strain NCI-H441; format: cell-based
Method in brief: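 Step one: dispense the test compound in serial DMSO dilutions. Step three: add the reagent and measure […].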

[2] = biological target: GDP-bound NRAS wild-type protein (Homo sapiens, UniProt P01111); assay: Binding to NRAS by surface plasmon resonance (SPR), KD and KD ratio to KRAS
GDP-bound NRAS wild-type protein, sequence (P01111 whole entry): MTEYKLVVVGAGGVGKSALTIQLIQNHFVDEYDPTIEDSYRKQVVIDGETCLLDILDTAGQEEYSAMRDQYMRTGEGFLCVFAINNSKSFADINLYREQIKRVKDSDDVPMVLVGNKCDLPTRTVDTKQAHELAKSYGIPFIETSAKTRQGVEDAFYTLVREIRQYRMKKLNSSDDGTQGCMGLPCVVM
Method in brief: as §1

[3] = ratio of KD for HRAS wild-type protein to KD for KRAS
[4] = ratio of KD for GDP-bound NRAS wild-type protein to KD for KRAS
[5] = ratio of KD value for HRAS wild-type protein to KD value for KRAS (SPR)
[6] = ratio of KD value for GDP-bound NRAS wild-type protein to KD value for KRAS (SPR)
[7] = ratio of the KD value with respect to HRAS wild-type protein to the KD value with respect to KRAS
[8] = ratio of the KD value with respect to GDP-bound NRAS wild-type protein to the KD value with respect to KRAS

SMILES | IC50 [1] [nM] | HRAS /KRAS (HRAS wild-type protein; [3]) | NRAS /KRAS [2, 4] | HRAS /KRAS (HRAS wild-type protein; [5]) | NRAS /KRAS [2, 6] | HRAS /KRAS (HRAS wild-type protein; [7]) | NRAS /KRAS [2, 8]
CCO[C@@H]1C[C@H]2C(=O)NC3(CC(C)(C)C3)C(=O)N(C)[C@@H](C3CCCC3)C(=O)N(C)[C@H](C(=O)N(C)C)CC(=O)N(C)[C@@H](CC(C)C)C(=O)N[C@@H]([C@@H](C)CC)C(=O)N(C)CC(=O)N(C)[C@H]3C/C=C\CCN(C3=O)[C@@H](Cc3ccc(C(C)C)cc3)C(=O)N(C)CC(=O)N[C@@H](CCc3ccc(C(F)(F)F)c(OC)c3)C(=O)N2C1 [PP2692] | 7.7 | A (a compound having 10 or more and less than 20 is denoted as A) | A (a compound having 10 or more and less than 20 is denoted as A) | – | – | – | –
CCO[C@@H]1C[C@H]2C(=O)NC3(CCC3)C(=O)N(C)[C@@H](C3CCCC3)C(=O)N(C)[C@H](C(=O)N(C)C)CC(=O)N(C)[C@@H](CC)C(=O)N[C@@H]([C@@H](C)CC)C(=O)N3CC[C@H]3C(=O)N(C)[C@H]3C[C@@H](C)CCN(C3=O)[C@@H](Cc3ccc(C(F)(F)F)cc3)C(=O)N(C)CC(=O)N[C@@H](CCc3cc(F)c(C(F)(F)F)c(F)c3)C(=O)N2C1 [PP1021] | 14 | B (a compound having 3 or more and less than 10 is denoted as B) | C (A compound having a KD ratio of 0.1 or more and less than 3 is denoted as C) | – | – | – | –
CCC[C@H]1C(=O)N[C@@H](C2CCOCC2)C(=O)N(C)CC(=O)N(C)[C@H]2C/C=C\CCN(C2=O)[C@@H](Cc2ccc(C(F)(F)F)cc2)C(=O)N(C)CC(=O)N[C@@H](CCc2ccc(C(F)(F)F)c(Cl)c2)C(=O)N2C[C@H](OCC)C[C@H]2C(=O)NC2(CC(C)(C)C2)C(=O)N(C)[C@@H](C2CCCC2)C(=O)N(C)[C@H](C(=O)N(C)C)CC(=O)N1C [PP3000] | 63 | A (a compound having 10 or more and less than 20 is denoted as A) | AA (a compound having 20 or more is denoted as AA) | – | – | – | –
CCO[C@@H]1C[C@H]2C(=O)NC3(CC(C)(C)C3)C(=O)N(C)[C@@H](C3CCCC3)C(=O)N(C)[C@H](C(=O)N3CCCCC3)CC(=O)N(C)[C@H]3CC/C=C/c4ccc(cc4)C[C@@H](C(=O)N(C)CC(=O)N[C@@H](CCc4ccc(Cl)c(Cl)c4)C(=O)N2C1)N1CC/C=C\C[C@@H](C1=O)N(C)C(=O)CN(C)C(=O)[C@H]([C@@H](C)CC)NC3=O [PP2597] | 20.1 | A (a compound having 10 or more and less than 20 is denoted as A) | A (a compound having 10 or more and less than 20 is denoted as A) | – | – | – | –
C#CC[C@H]1C(=O)N[C@@H]([C@@H](C)CC)C(=O)N(C)CC(=O)N(C)[C@H]2CCCCCN(C2=O)[C@@H](Cc2ccc(C(F)(F)F)cc2)C(=O)N(C)CC(=O)N[C@@H](CCc2cc(F)c(C(F)(F)F)c(F)c2)C(=O)N2C[C@H](OCC)C[C@H]2C(=O)NC2(CCC2)C(=O)N(C)[C@@H](C2CCCC2)C(=O)N(C)[C@H](C(=O)N(C)C)CC(=O)N1C [PP0666] | 19.1 | – | – | – | – | B (a compound having 3 or more and less than 10 is denoted as B) | B (a compound having 3 or more and less than 10 is denoted as B)
CCO[C@@H]1C[C@H]2C(=O)NC3(CC(C)(C)C3)C(=O)N(C)[C@@H](C3CCCC3)C(=O)N(C)[C@H](C(=O)N3CCCCC3)CC(=O)N(C)[C@@H](CC)C(=O)N[C@@H]([C@@H](C)CC)C(=O)N(C)CC(=O)N(C)[C@H]3C/C=C\CCN(C3=O)[C@@H](Cc3ccc(C(F)(F)F)cc3)C(=O)N(C)CC(=O)N[C@@H](CCc3cc(F)c(C(F)(F)F)c(F)c3)C(=O)N2C1 [PP1945] | 33.8 | – | – | – | – | A (a compound having 10 or more and less than 20 is denoted as A) | AA (a compound having 20 or more is denoted as AA)
CCO[C@@H]1C[C@H]2C(=O)NC3(CC(C)(C)C3)C(=O)N(C)[C@@H](C(CC)CC)C(=O)N3CCC[C@@H]3CC(=O)N(C)[C@@H](CC)C(=O)N[C@@H]([C@@H](C)CC)C(=O)N(C)CC(=O)N(C)[C@H]3C/C=C\CCN(C3=O)[C@@H](Cc3ccc(C(F)(F)F)cc3)C(=O)N(C)CC(=O)N[C@@H](CCc3cc(F)c(C(F)(F)F)c(F)c3)C(=O)N2C1 [PP1605] | 31.6 | – | – | A (a compound having 10 or more and less than 20 is denoted as A) | A (a compound having 10 or more and less than 20 is denoted as A) | – | –
CC[C@H](C)[C@@H]1NC(=O)[C@H](CC)N(C)C(=O)C[C@@H](C(=O)N(C)C)N(C)C(=O)[C@H](C2CCCC2)N(C)C(=O)C2(CCC2)NC(=O)[C@@H]2CCCCN2C(=O)[C@H](CCc2cc(F)c(C(F)(F)F)c(F)c2)NC(=O)CN(C)C(=O)[C@H](Cc2ccc(C(F)(F)F)cc2)N2CCCCC[C@@H](C2=O)N(C)C(=O)CN(C)C1=O [PP0655] | 125 | – | – | – | – | B (a compound having 3 or more and less than 10 is denoted as B) | B (a compound having 3 or more and less than 10 is denoted as B)
CC[C@H](C)[C@@H]1NC(=O)[C@@H]2CCCc3ccc(cc3)C[C@@H](C(=O)N(C)CC(=O)N[C@@H](CCc3ccc(C(F)(F)F)c(OC)c3)C(=O)N3CC4(CC4)C[C@H]3C(=O)NC3(CC(C)(C)C3)C(=O)N(C)[C@@H](C3CCCC3)C(=O)N(C)[C@H](C(=O)N(C)CC)CC(=O)N2C)N2CC/C=C\C[C@@H](C2=O)N(C)C(=O)CN(C)C1=O [PP3087] | 6.9 | B (a compound having 3 or more and less than 10 is denoted as B) | A (a compound having 10 or more and less than 20 is denoted as A) | – | – | – | –
CC[C@H](C)[C@@H]1NC(=O)[C@@H]2CCC/C=C/c3ccc(cc3)C[C@@H](C(=O)N(C)CC(=O)N[C@@H](CCc3ccc(Cl)c(Cl)c3)C(=O)N3C[C@H](OC(C)C)C[C@H]3C(=O)NC3(CC(C)(C)C3)C(=O)N(C)[C@@H](C3CCCC3)C(=O)N(C)[C@H](C(=O)N(C)CC)CC(=O)N2C)N2CC/C=C\C[C@@H](C2=O)N(C)C(=O)CN(C)C1=O [PP2595] | 12.7 | B (a compound having 3 or more and less than 10 is denoted as B) | A (a compound having 10 or more and less than 20 is denoted as A) | – | – | – | –

The next compounds have a lower IC50 [1] than those just listed; values first:

IC50 [1] [nM] | SMILES | HRAS /KRAS (HRAS wild-type protein; [3]) | NRAS /KRAS [2, 4] | HRAS /KRAS (HRAS wild-type protein; [5]) | NRAS /KRAS [2, 6] | HRAS /KRAS (HRAS wild-type protein; [7]) | NRAS /KRAS [2, 8]
6.4 | CC[C@H](C)[C@@H]1NC(=O)[C@H](CC(C)C)N(C)C(=O)C[C@@H](C(=O)N2CCOCC2)N(C)C(=O)[C@H](C2CCCC2)N(C)C(=O)C2(CCCC2)NC(=O)[C@@H]2CCCN2C(=O)[C@H](CCc2ccc(C(F)(F)F)c(Cl)c2)NC(=O)CN(C)C(=O)[C@H](Cc2ccc(C)cc2)N(CCC(C)C)C(=O)[C@@H]2CCN2C(=O)[C@H](C)N(C)C1=O [PP0086] ([NMeL]I[NMeA][Aze][X37][Sar][hPhe(3-Cl-4-CF3)]P[Ac5c][NMeGly(cPent)][NMeD]-Morpholide; lactam N-11) | B (a compound having 3 or more and less than 10 is denoted as B) | C (A compound having a KD ratio of 0.1 or more and less than 3 is denoted as C) | – | – | – | –
5.1 | CCCN(C)C(=O)[C@@H]1CC(=O)N(C)[C@@H](COC)C(=O)N[C@@H]([C@@H](C)CC)C(=O)N(C)CC(=O)N(C)[C@H]2C/C=C\CCN(C2=O)[C@@H](Cc2ccc(C(F)(F)F)cc2)C(=O)N(C)CC(=O)N[C@@H](CCc2cc(F)c(C(F)(F)F)c(F)c2)C(=O)N2C[C@H](OCC)C[C@H]2C(=O)NC2(CC(F)(F)C2)C(=O)N(C)[C@@H](C2CCCC2)C(=O)N1C [PP1743] | – | – | A (a compound having 10 or more and less than 20 is denoted as A) | AA (a compound having 20 or more is denoted as AA) | – | –
4.8 | CC[C@H](C)[C@@H]1NC(=O)[C@H](CC(C)C)N(C)C(=O)C[C@@H](C(=O)N2CCOCC2)N(C)C(=O)[C@H](C2CCCC2)N(C)C(=O)C2(CCCC2)NC(=O)[C@@H]2CCCN2C(=O)[C@H](CCc2ccc(C(F)(F)F)c(Cl)c2)NC(=O)CN(C)C(=O)[C@H](Cc2ccccc2)N(CC)C(=O)[C@@H]2CCN2C(=O)[C@H](C)N(C)C1=O [PP0215] ([NMeL]I[NMeA][Aze][NEtPhe][Sar][hPhe(3-Cl-4-CF3)]P[Ac5c][NMeGly(cPent)][NMeD]-Morpholide; lactam N-11) | C (A compound having a KD ratio of 0.1 or more and less than 3 is denoted as C) | C (A compound having a KD ratio of 0.1 or more and less than 3 is denoted as C) | – | – | – | –
4.7 | CCC[C@H]1C(=O)N[C@@H]([C@@H](C)CC)C(=O)N(C2CC2)CC(=O)N(C)[C@H]2C/C=C\CCN(C2=O)[C@@H](Cc2ccc(C)cc2)C(=O)N(C)CC(=O)N[C@@H](CCc2ccc(C(F)(F)F)c(OC)c2)C(=O)N2C[C@H](OCC)C[C@H]2C(=O)N(C)C2(CCC2)C(=O)N(C)[C@@H](C2CCCC2)C(=O)N(C)[C@H](C(=O)N2CCCC2)CC(=O)N1C [PP3098] | A (a compound having 10 or more and less than 20 is denoted as A) | A (a compound having 10 or more and less than 20 is denoted as A) | – | – | – | –
3.1 | C#CC[C@H]1C(=O)N[C@@H]([C@@H](C)CC)C(=O)N(C)CC(=O)N(C)[C@H]2C/C=C\CCN(C2=O)[C@@H](Cc2ccc(C(F)(F)F)cc2)C(=O)N(C)CC(=O)N[C@@H](CCc2cc(F)c(C(F)(F)F)c(F)c2)C(=O)N2C[C@H](F)C[C@H]2C(=O)NC2(CC(C)(C)C2)C(=O)N(C)[C@@H](C2CCCC2)C(=O)N(C)[C@H](C(=O)N(C)CC)CC(=O)N1C [PP1691] | – | – | A (a compound having 10 or more and less than 20 is denoted as A) | A (a compound having 10 or more and less than 20 is denoted as A) | – | –
